Experiment [1] has as its target T1, clathrin heavy chain NTD (amino acids 1–364) – amphiphysin 1 B/C domain protein–protein interaction (NTD‐PPI) (Homo sapiens, UniProt Q00610).
T1 construct: GST‐tagged clathrin heavy chain NTD (amino acids 1–364); made in house
T1 sequence (Q00610 1-364): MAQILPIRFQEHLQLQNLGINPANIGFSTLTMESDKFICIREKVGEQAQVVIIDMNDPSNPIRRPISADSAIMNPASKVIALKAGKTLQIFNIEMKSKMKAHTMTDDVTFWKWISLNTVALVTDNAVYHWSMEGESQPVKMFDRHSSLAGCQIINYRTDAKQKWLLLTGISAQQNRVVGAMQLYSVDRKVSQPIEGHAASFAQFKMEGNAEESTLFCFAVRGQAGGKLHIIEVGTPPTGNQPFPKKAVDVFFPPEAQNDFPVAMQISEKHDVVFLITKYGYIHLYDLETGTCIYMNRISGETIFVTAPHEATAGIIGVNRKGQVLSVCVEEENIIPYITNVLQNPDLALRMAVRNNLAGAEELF
Kind of experiment: ELISA-based clathrin inhibitor binding assay (NTD-PPI). The protocol: The clathrin inhibitor assay was based inhibition of protein–protein interaction (PPI) between clathrin and amphiphysin as described in our previous report.^[ [45], [54] ^] Bacterially expressed recombinant purified His6‐tagged amphiphysin 1 B/C domain (which comprises both the clathrin and the AP‐2 binding sites, amino acids 250‐578^[ [55] ^]) in screening buffer (20 mM HEPES, pH 7.4, 50 mM NaCl, 1 mM DTT, 1 mM PMSF) was added to a 384 well ELISA plate (Corning Maxisorp 3700) and bound to the plastic for 1 h at room temperature. […] Following extensive washes (with 20 mM HEPES, pH 7.4, 50 mM NaCl, 0.05% Tween 20), chemical compounds diluted in DMSO (10 μL) were added and incubated together with bacterially expressed recombinant GST‐tagged clathrin heavy chain NTD (amino acids 1–364) for 1 h at room temperature in screening buffer. After 3 washes, horseradish peroxidase‐coupled anti‐GST antibodies were added in screening buffer and the plate incubated for 40 min at room temperature. Following additional washes, 50 μL TMB (3,3′,5,5′‐tetramethylbenzidine) (Pierce Biotechnology) chromogenic substrate of horseradish peroxidase was added, and the plate was incubated for 10 min before the reaction was terminated by adding 50 μL 1N sulfuric acid to produce a yellow colour. The amount of bound protein was determined by spectrophotometric measurement in a plate reader. Relative binding was calculated as a percentage of DMSO control.
In general terms: An ELISA detects its analyte on a solid surface through an enzyme-linked reagent.

Experiment [2] deals with T2, full length human Dynamin I (Homo sapiens, UniProt Q05193).
T2 construct: full length human Dynamin I expressed in Sf21 insect cells; made in house; host or cells: Sf21 insect cells
T2 sequence (Q05193 1-864): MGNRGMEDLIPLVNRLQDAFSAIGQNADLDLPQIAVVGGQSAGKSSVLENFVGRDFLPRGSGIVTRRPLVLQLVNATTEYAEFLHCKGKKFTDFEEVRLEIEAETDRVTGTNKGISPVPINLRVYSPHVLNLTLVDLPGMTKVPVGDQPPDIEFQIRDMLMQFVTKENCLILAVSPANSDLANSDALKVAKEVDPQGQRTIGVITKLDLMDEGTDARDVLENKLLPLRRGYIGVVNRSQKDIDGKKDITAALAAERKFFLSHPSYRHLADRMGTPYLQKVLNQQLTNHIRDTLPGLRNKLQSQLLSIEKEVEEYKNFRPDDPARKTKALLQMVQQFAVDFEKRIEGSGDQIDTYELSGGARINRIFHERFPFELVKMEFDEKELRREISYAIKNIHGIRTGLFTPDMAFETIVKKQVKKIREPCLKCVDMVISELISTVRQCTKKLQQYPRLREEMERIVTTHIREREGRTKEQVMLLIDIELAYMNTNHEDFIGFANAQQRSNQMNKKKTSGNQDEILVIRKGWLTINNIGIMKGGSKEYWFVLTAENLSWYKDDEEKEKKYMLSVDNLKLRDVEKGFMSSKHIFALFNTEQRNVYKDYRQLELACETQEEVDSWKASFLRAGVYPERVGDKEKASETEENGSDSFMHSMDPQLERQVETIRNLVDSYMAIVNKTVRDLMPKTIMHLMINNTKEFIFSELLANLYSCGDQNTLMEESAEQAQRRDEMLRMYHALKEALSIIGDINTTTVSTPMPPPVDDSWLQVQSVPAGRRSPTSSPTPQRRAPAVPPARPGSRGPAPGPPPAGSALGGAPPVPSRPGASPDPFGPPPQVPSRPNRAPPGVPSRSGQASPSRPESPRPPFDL
Kind of experiment: Dynamin GTPase activity, Malachite Green phosphate detection assay. The class given is biochemical. The method, then:
Dynamin GTPase activity was determined in vitro using the Malachite Green phosphate detection absorbance‐based assay within a 96‐well plate format as described previously. The enzyme source was full length human Dynamin I expressed in Sf21 insect cells and affinity‐purified on GST‐Amph2‐SH3 (rat Amphiphysin 2 (494–588)).^[ [56] ^]

Setting [3] is: Table 1, library 1, ELISA, average of duplicate measurements (n=2), read-out: NTD‐PPI IC50.
Setting [4] is: Table 1, library 1, n = 1 unless noted (19: n = 2), '–' = not active at 150 μM, read-out: Dyn 1 IC50.
The mark [5] stands for this setting: values quoted in running text (section 2.2), read-out: Dynamin IC50.
[6] abbreviates: Table 2, library 2, ELISA, average of duplicate measurements (n=2), read-out: NTD‐PPI IC50.
Setting [7] is: Table 2, library 2, n = 3, triplicate, '–' = not active at 100 μM, read-out: Dyn 1 IC50.
[8] abbreviates: Table 3, library 3, ELISA, average of duplicate measurements (n = 2), read-out: NTD‐PPI IC50.

Read-outs that look alike come from different tables or passages of the source.

What is called IC50 is the midpoint of a concentration-inhibition curve. Take `CC(=O)Nc1ccc(/C=C2\SC(NS(=O)(=O)c3cccc4ccccc34)=NC2=O)cc1` [compound 19, (Z)‐N‐(4‐((2‐(naphthalene‐1‐sulfonamido)‐4‐oxothiazol‐5(4H)‐ylidene)methyl)phenyl)acetamide]: the IC50 in experiment [1] (setting [3]) is 3.5 µM; in experiment [2] (setting [4]), 93 ± 2.5 µM; in experiment [2] (setting [5]), 92.7 µM. Regarding `O=C1N=C(NS(=O)(=O)c2cccc3ccccc23)S/C1=C\c1ccc(Cl)cc1Cl` [compound 35, (Z)‐N‐(5‐(2,4‐dichlorobenzylidene)‐4‐oxo‐4,5‐dihydrothiazol‐2‐yl)naphthalene‐1‐sulfonamide], the IC50 in experiment [1] (setting [6]) turned out to be 1.5 µM; in experiment [2] (setting [7]) it was 66.8 µM. Regarding `CCCCc1ccc(/C=C2\SC(NS(=O)(=O)c3cccc4ccccc34)=NC2=O)cc1` [compound 23, (Z)‐N‐(5‐(4‐butylbenzylidene)‐4‐oxo‐4,5‐dihydrothiazol‐2‐yl)naphthalene‐1‐sulfonamide], the 50% inhibitory concentration (IC50) in experiment [2] (setting [4]) is approximately 103 µM; in experiment [2] (setting [5]), 103 µM. In the case of `CN1CCOc2cc(/C=C3\SC(NS(=O)(=O)c4cccc5ccccc45)=NC3=O)ccc21` [compound 53, (Z)‐N‐(5‐((4‐methyl‐3,4‐dihydro‐2H‐benzo[b][1,4]oxazin‐7‐yl)methylene)‐4‐oxo‐4,5‐dihydrothiazol‐2‐yl)naphthalene‐1‐sulfonamide], in experiment [1] (ELISA, in words), the “NTD‐PPI activity relative to 54” value is recorded as “threefold less active”. Further, the IC50 is 3.3 µM in experiment [1] (Table 4, library 4, ELISA, average of duplicate measurements (n = 2), read-out: NTD‐PPI IC50); less than 5 µM in experiment [1] (read-out: NTD‐PPI IC50 (ELISA)); 100.7 ± 1 µM in experiment [2] (Table 4, library 4, n = 1 or n = 2 as footnoted, '–' = not active at 100 μM, read-out: Dynamin 1 IC50). Regarding `O=C1N=C(NS(=O)(=O)c2cccc3ccccc23)S/C1=C\c1cc(O)ccc1O` [compound 26, (Z)‐N‐(5‐(2,5‐dihydroxybenzylidene)‐4‐oxo‐4,5‐dihydrothiazol‐2‐yl)naphthalene‐1‐sulfonamide], the IC50 in experiment [2] (setting [7]) was found to be 70 ± 5.3 µM. With `CC(C)(C)c1ccc(/C=C2\SC(NS(=O)(=O)c3cccc4ccccc34)=NC2=O)cc1` [compound 20, (Z)‐N‐(5‐(4‐(tert‐butyl)benzylidene)‐4‐oxo‐4,5‐dihydrothiazol‐2‐yl)naphthalene‐1‐sulfonamide], the IC50 in experiment [2] (setting [4]) was more than 150 µM.

Take `O=C1N=C(NS(=O)(=O)c2cccc3ccccc23)S/C1=C\C1CCCCC1` [compound 40, (Z)‐N‐(5‐(cyclohexylmethylene)‐4‐oxo‐4,5‐dihydrothiazol‐2‐yl)naphthalene‐1‐sulfonamide]: the IC50 in experiment [2] (Table 3, library 3, n = 1 unless otherwise stated (41, 42: n = 2), '–' = not active at 100 μM, read-out: Dynamin 1 IC50) is more than 100 µM. On to `CCCCCCC/C=C1\SC(NS(=O)(=O)c2cccc3ccccc23)=NC1=O` [compound 43, (Z)‐N‐(5‐octylidene‐4‐oxo‐4,5‐dihydrothiazol‐2‐yl)naphthalene‐1‐sulfonamide], for which, in experiment [1] (setting [8]), the IC50 stood at 5.9 µM. Turning to `N#Cc1cccc(/C=C2\SC(NS(=O)(=O)c3cccc4ccccc34)=NC2=O)c1` [compound 12, (Z)‐N‐(5‐(3‐cyanobenzylidene)‐4‐oxo‐4,5‐dihydrothiazol‐2‐yl)naphthalene‐1‐sulfonamide], the values for the IC50 in experiment [1] (setting [3]) and in experiment [2] (setting [4]) were 5.7 µM and more than 150 µM, respectively.

With `O=C1N=C(NS(=O)(=O)c2cccc3ccccc23)S/C1=C\c1cccc(O)c1O` [compound 24, (Z)‐N‐(5‐(2,3‐dihydroxybenzylidene)‐4‐oxo‐4,5‐dihydrothiazol‐2‐yl)naphthalene‐1‐sulfonamide], the “fold less active (NTD‐PPI) than 25 and 27” value in experiment [1] (ELISA, relative to 2,4‐dihydroxyphenyl 25 and 3,4‐dihydroxyphenyl 27) is given as 3 fold. Besides, the IC50 worked out at 3.9 µM in experiment [1] (setting [6]) and 85 µM in experiment [2] (setting [7]). Consider `O=C1N=C(NS(=O)(=O)c2cccc3ccccc23)S/C1=C\c1ccc(O)c(O)c1` [compound 27, (Z)‐N‐(5‐(3,4‐dihydroxybenzylidene)‐4‐oxo‐4,5‐dihydrothiazol‐2‐yl)naphthalene‐1‐sulfonamide], for which, in experiment [2] (setting [7]), the IC50 came out at 50.4 ± 8.4 µM. For `COc1cccc(/C=C2\SC(NS(=O)(=O)c3cccc4ccccc34)=NC2=O)c1OC` [compound 29, (Z)‐N‐(5‐(2,3‐dimethoxybenzylidene)‐4‐oxo‐4,5‐dihydrothiazol‐2‐yl)naphthalene‐1‐sulfonamide], the IC50 in experiment [2] (setting [7]) was more than 100 µM.

Regarding `N#Cc1ccc(/C=C2\SC(NS(=O)(=O)c3cccc4ccccc34)=NC2=O)cc1` [compound 11, (Z)‐N‐(5‐(4‐cyanobenzylidene)‐4‐oxo‐4,5‐dihydrothiazol‐2‐yl)naphthalene‐1‐sulfonamide], in experiment [2] (setting [4]), the 50% inhibitory concentration (IC50) is more than 150 µM. With `COc1cc(/C=C2\SC(NS(=O)(=O)c3cccc4ccccc34)=NC2=O)cc(OC)c1` [compound 32, (Z)‐N‐(5‐(3,5‐dimethoxybenzylidene)‐4‐oxo‐4,5‐dihydrothiazol‐2‐yl)naphthalene‐1‐sulfonamide], in experiment [2] (setting [7]), the IC50 is more than 100 µM.

For the molecule `CCCc1ccc(/C=C2\SC(NS(=O)(=O)c3cccc4ccccc34)=NC2=O)cc1` [compound 22, (Z)‐N‐(4‐oxo‐5‐(4‐propylbenzylidene)‐4,5‐dihydrothiazol‐2‐yl)naphthalene‐1‐sulfonamide], the IC50 was approximately 91 µM in experiment [2] (setting [4]) and 91 µM in experiment [2] (setting [5]).

With `O=C1N=C(NS(=O)(=O)c2cccc3ccccc23)S/C1=C\c1ccc(F)c(F)c1` [compound 38, (Z)‐N‐(5‐(3,4‐difluorobenzylidene)‐4‐oxo‐4,5‐dihydrothiazol‐2‐yl)naphthalene‐1‐sulfonamide], in experiment [2] (setting [7]), the concentration for half-maximal inhibition (IC50) was more than 100 µM. For the molecule `O=C1N=C(NS(=O)(=O)c2cccc3ccccc23)SC1=Cc1ccccc1-c1ccccc1` [compound 16, N‐(5‐([1,1'‐biphenyl]‐2‐ylmethylene)‐4‐oxo‐4,5‐dihydrothiazol‐2‐yl)naphthalene‐1‐sulfonamide], the IC50 in experiment [2] (setting [4]) was more than 150 µM.

Turning to `O=C1N=C(NS(=O)(=O)c2cccc3ccccc23)S/C1=C\c1ccc(O)c(O)c1O` [compound 28, (Z)‐N‐(4‐oxo‐5‐(2,3,4‐trihydroxybenzylidene)‐4,5‐dihydrothiazol‐2‐yl)naphthalene‐1‐sulfonamide], the IC50 in experiment [2] (setting [7]) came out at 34.3 ± 3.4 µM. For the molecule `O=C1N=C(NS(=O)(=O)c2cccc3ccccc23)S/C1=C\C1CC=CCC1` (stereo not shown) [compound 39, (Z)‐N‐(5‐(cyclohex‐3‐en‐1‐ylmethylene)‐4‐oxo‐4,5‐dihydrothiazol‐2‐yl)naphthalene‐1‐sulfonamide], in experiment [1] (setting [8]), the half-maximal inhibitory concentration (IC50) is 4.3 µM. With `O=C1N=C(NS(=O)(=O)c2cccc3ccccc23)S/C1=C\c1ccc(O)cc1O` [compound 25, (Z)‐N‐(5‐(2,4‐dihydroxybenzylidene)‐4‐oxo‐4,5‐dihydrothiazol‐2‐yl)naphthalene‐1‐sulfonamide], in experiment [2] (setting [7]), the half-maximal inhibitory concentration (IC50) came out at 61.2 ± 7.5 µM.
